According to PubChem BioAssay AID330 (DTP/NCI, 2004):
Where “and” joins values, the source holds several entries; their conditions need not be identical. Identical values can stand only once. Inconclusive results and toxic doses are left out. Square brackets hold non-standard residues; d marks the D form. Peptide text beside a SMILES is read from it. * marks the point of attachment. Nle = CCCC[CH](N)C(=O)O; Cbz = O=C(OCc1ccccc1)*

Tested on: P388 leukemia ip, CD2F1 mice, survival T/C
Test: NCI In Vivo Anticancer Drug Screen. Data for tumor model P388 Leukemia (intraperitoneal) in CD2F1 (CDF1) mice
Details: endpoint: median survival time, higher = longer survival
Procedure, shortened: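 Mice carrying the transplanted tumor received test compound or vehicle. Survival was recorded in each group, and the value is the treated-group measurement divided by that of the vehicle-treated control group.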

[1] = dose: 100.0 mg/kg/injection, schedule: Q01DX009 (ip), vehicle: saline
[2] = dose: 200.0 mg/kg/injection, schedule: Q01DX009 (ip), vehicle: saline
[3] = dose: 60.0 mg/kg/injection, schedule: Q01DX005 (ip), vehicle: saline with Tween-80
[4] = dose: 120.0 mg/kg/injection, schedule: Q01DX005 (ip), vehicle: saline with Tween-80
[5] = dose: 50.0 mg/kg/injection, schedule: Q01DX009 (ip), vehicle: saline with Tween-80
[6] = dose: 100.0 mg/kg/injection, schedule: Q01DX009 (ip), vehicle: saline with Tween-80
[7] = dose: 200.0 mg/kg/injection, schedule: Q01DX009 (ip), vehicle: saline with Tween-80
[8] = dose: 400.0 mg/kg/injection, schedule: Q01DX009 (ip), vehicle: saline with Tween-80
[9] = dose: 400.0 mg/kg/injection, schedule: Q01DX009 (ip), vehicle: saline
[10] = dose: 50.0 mg/kg/injection, schedule: Q01DX009 (ip), vehicle: saline
[11] = dose: 50.0 mg/kg/injection, schedule: Q01DX005 (ip), vehicle: Klucel (hydroxypropylcellulose) (HPC)
[12] = dose: 100.0 mg/kg/injection, schedule: Q01DX005 (ip), vehicle: Klucel (hydroxypropylcellulose) (HPC)
[13] = dose: 200.0 mg/kg/injection, schedule: Q01DX005 (ip), vehicle: Klucel (hydroxypropylcellulose) (HPC)
[14] = dose: 100.0 mg/kg/injection, schedule: Q04DX003 (ip), vehicle: Klucel (hydroxypropylcellulose) (HPC)
[15] = dose: 50.0 mg/kg/injection, schedule: Q01DX005 (ip), vehicle: saline with Tween-80
[16] = dose: 100.0 mg/kg/injection, schedule: Q01DX005 (ip), vehicle: saline with Tween-80
[17] = dose: 200.0 mg/kg/injection, schedule: Q01DX005 (ip), vehicle: saline with Tween-80
[18] = dose: 100.0 mg/kg/injection, schedule: Q01DX001 (ip), vehicle: saline with Tween-80
[19] = dose: 200.0 mg/kg/injection, schedule: Q01DX001 (ip), vehicle: saline with Tween-80
[20] = dose: 400.0 mg/kg/injection, schedule: Q01DX001 (ip), vehicle: saline with Tween-80

Structure (SMILES): Cc1cc(O)ccc1O
- T/C [1]: 100 % of control and 116 % of control
- T/C [2]: 112 % of control and 117 % of control

Structure (SMILES): O=C(NC(Cc1c[nH]c2ccccc12)C(=O)O)C(=O)c1c[nH]c2ccccc12 (centres undefined)
- T/C [3]: 100 % of control
- T/C [4]: 97 % of control
- T/C (dose: 240.0 mg/kg/injection, schedule: Q01DX005 (ip), vehicle: saline with Tween-80): 90 % of control

Structure (SMILES): CCOC(=O)c1nc(OCC)nc(OCC)c1I
- T/C (dose: 12.5 mg/kg/injection, schedule: Q01DX009 (ip), vehicle: distilled water + Tween-80): 112 % of control
- T/C (dose: 25.0 mg/kg/injection, schedule: Q01DX009 (ip), vehicle: distilled water + Tween-80): 107 % of control
- T/C (dose: 50.0 mg/kg/injection, schedule: Q01DX009 (ip), vehicle: distilled water + Tween-80): 96 % of control
- T/C (dose: 100.0 mg/kg/injection, schedule: Q01DX009 (ip), vehicle: distilled water + Tween-80): 95 % of control

Structure (SMILES): COc1cc(CN)ccc1O
- T/C [5]: 103 % of control
- T/C [6]: 110 % of control
- T/C [1]: 104 % of control
- T/C [7]: 103 % of control
- T/C [2]: 101 % of control
- T/C [8]: 104 % of control
- T/C [9]: 104 % of control
- T/C (dose: 600.0 mg/kg/injection, schedule: Q01DX009 (ip), vehicle: saline): 107 % of control

Structure (SMILES): CC(=O)c1c(O)c(C)cc2c1CCc1ccc(O)c(C)c1-2
- T/C (dose: 2.0 mg/kg/injection, schedule: Q01DX009 (ip), vehicle: Klucel (hydroxypropylcellulose) (HPC)): 116 % of control
- T/C (dose: 4.0 mg/kg/injection, schedule: Q01DX009 (ip), vehicle: Klucel (hydroxypropylcellulose) (HPC)): 100 % of control
- T/C (dose: 8.0 mg/kg/injection, schedule: Q01DX009 (ip), vehicle: Klucel (hydroxypropylcellulose) (HPC)): 107 % of control
- T/C (dose: 16.0 mg/kg/injection, schedule: Q01DX009 (ip), vehicle: Klucel (hydroxypropylcellulose) (HPC)): 108 % of control

Structure (SMILES): C[n+]1ccccc1-c1ccc[n+](CCCC[n+]2cccc(-c3cccc[n+]3C)c2)c1
- T/C [3]: 106 % of control
- T/C [4]: 116 % of control

Structure (SMILES): COc1cc(NCCN(CC(C)C)C2CCCC2)c2ncccc2c1
- T/C (dose: 12.5 mg/kg/injection, schedule: Q01DX005 (ip), vehicle: saline): 100 % of control and 106 % of control
- T/C (dose: 25.0 mg/kg/injection, schedule: Q01DX005 (ip), vehicle: saline): 100 % of control and 114 % of control
- T/C (dose: 50.0 mg/kg/injection, schedule: Q01DX005 (ip), vehicle: saline): 101 % of control and 103 % of control and 106 % of control
- T/C (dose: 100.0 mg/kg/injection, schedule: Q01DX005 (ip), vehicle: saline): 121 % of control and 90 % of control and 96 % of control

Structure (SMILES): CCC[CH2][Sn]1([CH2]CCC)[O]OC(c2ccc(C)cc2)[O]1 (centres undefined)
- T/C (dose: 0.19 mg/kg/injection, schedule: Q01DX009 (ip), vehicle: saline with Tween-80): 102 % of control
- T/C (dose: 0.38 mg/kg/injection, schedule: Q01DX009 (ip), vehicle: saline with Tween-80): 94 % of control
- T/C (dose: 0.75 mg/kg/injection, schedule: Q01DX009 (ip), vehicle: saline with Tween-80): 116 % of control

Structure (SMILES): CC(=O)Oc1ccc(/C=N\N(C)C)cc1
- T/C [10]: 102 % of control
- T/C [1]: 95 % of control

Structure (SMILES): Clc1ccc2sc(-c3ccccc3)nc2c1
- T/C [5]: 106 % of control
- T/C [6]: 103 % of control
- T/C [7]: 100 % of control
- T/C [8]: 100 % of control

Structure (SMILES): Cc1ccc(NNC(=O)C(=O)O[C@H]2C(=O)OC[C@@H]2O)cc1
- T/C [11]: 100 % of control
- T/C [12]: 100 % of control
- T/C [13]: 93 % of control

Structure (SMILES): Nc1nnnn1-c1ccccc1Cl
- T/C [14]: 105 % of control
- T/C (dose: 200.0 mg/kg/injection, schedule: Q04DX003 (ip), vehicle: Klucel (hydroxypropylcellulose) (HPC)): 100 % of control
- T/C (dose: 400.0 mg/kg/injection, schedule: Q04DX003 (ip), vehicle: Klucel (hydroxypropylcellulose) (HPC)): 101 % of control

Structure (SMILES): C[N+](C)(C)CC[N+](C)(C)Cc1cccc2ccccc12
- T/C [10]: 106 % of control
- T/C [1]: 107 % of control

Structure (SMILES): Cc1ncc(CO)c2c1OC(C)(C)OC2
- T/C [15]: 100 % of control
- T/C [16]: 107 % of control
- T/C [17]: 100 % of control

Structure (SMILES): ClC1CCC[N-]C1.ClC1CCC[N-]C1.[Cl][Pt+2][Cl] (centres undefined)
- T/C (dose: 0.78 mg/kg/injection, schedule: Q01DX009 (ip), vehicle: saline): 97 % of control
- T/C (dose: 1.56 mg/kg/injection, schedule: Q01DX009 (ip), vehicle: saline): 97 % of control
- T/C (dose: 3.13 mg/kg/injection, schedule: Q01DX009 (ip), vehicle: saline): 101 % of control
- T/C (dose: 6.25 mg/kg/injection, schedule: Q01DX009 (ip), vehicle: saline): 96 % of control
- T/C (dose: 12.5 mg/kg/injection, schedule: Q01DX009 (ip), vehicle: Klucel (hydroxypropylcellulose) (HPC)): 118 % of control and 123 % of control
- T/C (dose: 12.5 mg/kg/injection, schedule: Q01DX009 (ip), vehicle: saline): 108 % of control
- T/C (dose: 25.0 mg/kg/injection, schedule: Q01DX009 (ip), vehicle: Klucel (hydroxypropylcellulose) (HPC)): 121 % of control
- T/C (dose: 50.0 mg/kg/injection, schedule: Q01DX009 (ip), vehicle: Klucel (hydroxypropylcellulose) (HPC)): 101 % of control and 122 % of control

Structure (SMILES): COC(=O)/C(=C/C=C/c1ccccc1)N=[N+]=[N-]
- T/C [18]: 114 % of control
- T/C [19]: 105 % of control
- T/C [20]: 100 % of control

Structure (SMILES): CCCC1(C)COC(c2ccc(OC)cc2)OC1 (centres undefined)
- T/C [5]: 103 % of control
- T/C [18]: 109 % of control
- T/C [6]: 112 % of control
- T/C [19]: 102 % of control
- T/C [7]: 103 % of control
- T/C [20]: 104 % of control

Structure (SMILES): C=C1C(C)C2C(Cc3ccccc3)NC(=O)C23C(OC(C)=O)C=CC(C)(O)C(=O)C(C)C/C=C/C3C1O (centres undefined)
- T/C (dose: 0.62 mg/kg/injection, schedule: Q01DX009 (ip), vehicle: Klucel (hydroxypropylcellulose) (HPC)): 107 % of control
- T/C (dose: 0.63 mg/kg/injection, schedule: Q01DX009 (ip), vehicle: Klucel (hydroxypropylcellulose) (HPC)): 107 % of control
- T/C (dose: 1.25 mg/kg/injection, schedule: Q01DX009 (ip), vehicle: Klucel (hydroxypropylcellulose) (HPC)): 107 % of control and 97 % of control
- T/C (dose: 2.5 mg/kg/injection, schedule: Q01DX009 (ip), vehicle: Klucel (hydroxypropylcellulose) (HPC)): 107 % of control and 120 % of control
- T/C (dose: 5.0 mg/kg/injection, schedule: Q01DX009 (ip), vehicle: Klucel (hydroxypropylcellulose) (HPC)): 100 % of control and 103 % of control

Structure (SMILES): CCCCC(NC(=O)OCc1ccccc1)C(=O)NC(C(=O)O)C(C)C (centres undefined) (Cbz-[Nle]-Val-OH; configuration not given here)
- T/C [11]: 99 % of control
- T/C [12]: 111 % of control
- T/C [13]: 104 % of control

Structure (SMILES): CCOC(=O)CNC(=O)C(CS)NC(=O)C(CSC(c1ccccc1)c1ccccc1)NC(=O)OCc1ccccc1 (centres undefined)
- T/C [11]: 97 % of control
- T/C [12]: 99 % of control
- T/C [13]: 103 % of control

Structure (SMILES): CC1=CC(Cc2ccccc2)N(C)C(C#N)C1 (centres undefined)
- T/C (dose: 12.5 mg/kg/injection, schedule: Q01DX005 (ip), vehicle: saline with Tween-80): 101 % of control
- T/C (dose: 25.0 mg/kg/injection, schedule: Q01DX005 (ip), vehicle: saline with Tween-80): 105 % of control
- T/C [15]: 109 % of control and 116 % of control

Structure (SMILES): CC(C)NC(=O)OCC#CCOC(=O)NC(C)C
- T/C [15]: 98 % of control
- T/C [16]: 90 % of control
- T/C [17]: 90 % of control

Structure (SMILES): CCN(CC)CCNc1cc2c(c3sc4ccccc4c(=O)c13)CCCC2
- T/C (dose: 7.8 mg/kg/injection, schedule: Q01DX005 (ip), vehicle: other): 113 % of control
- T/C (dose: 15.6 mg/kg/injection, schedule: Q01DX005 (ip), vehicle: other): 110 % of control
- T/C (dose: 31.3 mg/kg/injection, schedule: Q01DX005 (ip), vehicle: other): 113 % of control
- T/C (dose: 62.5 mg/kg/injection, schedule: Q01DX005 (ip), vehicle: other): 101 % of control
- T/C (dose: 125.0 mg/kg/injection, schedule: Q01DX005 (ip), vehicle: other): 104 % of control

Structure (SMILES): O=C1C(Cl)=C(Nc2ccc(C(=O)Nc3ccc4cc(S(=O)(=O)O)cc(S(=O)(=O)O)c4c3)cc2)C(=O)C(Cl)=C1Nc1ccc(C(=O)Nc2ccc3cc(S(=O)(=O)O)cc(S(=O)(=O)O)c3c2)cc1
- T/C [10]: 110 % of control
- T/C [1]: 89 % of control
- T/C [2]: 103 % of control

Structure (SMILES): c1ccc2c(c1)Sc1cnccc1N2CC1CO1 (centres undefined)
- T/C [1]: 109 % of control
- T/C [2]: 100 % of control
- T/C [9]: 100 % of control

Structure (SMILES): O=NN(CCCl)C(=O)Nc1cccc(O)c1
- T/C (dose: 66.0 mg/kg/injection, schedule: Q04DX003 (ip), vehicle: Klucel (hydroxypropylcellulose) (HPC)): 220 % of control
- T/C [14]: 240 % of control
